Measurements taken from patent publication US8119687B2, “Derivatives of dioxan-2-alkyl carbamates, preparation thereof and application thereof in therapeutics” (Sanofi-Aventis, priority 2002, dated 2012).

melting point [°C]	Compound
131 to 133	O=C(NCC[C@H]1OC[C@H](c2cccc3ccccc32)CO1)Oc1ccccc1
125 to 127	O=C(NCCC[C@H]1OC[C@H](c2cccc3ccccc32)CO1)Oc1ccccc1
129 to 131	COc1ccc2c(cccc2[C@H]2CO[C@H](CCNC(=O)Oc3ccc(Cl)cc3)OC2)c1
128	COc1ccc2c(cccc2[C@H]2CO[C@H](CCCNC(=O)Oc3ccccc3)OC2)c1
159 to 162	O=C(NCCC[C@H]1OC[C@H](c2cccc3cc(OCC4CC4)ccc32)CO1)Oc1ccc(Cl)cc1
151 to 153	COc1ccc2cccc([C@H]3CO[C@H](CCCNC(=O)Oc4ccccc4)OC3)c2c1
130 to 131	O=C(NCCC[C@H]1OC[C@H](c2ccc3ccccc3c2)CO1)Oc1ccccc1
176 to 178	NC(=O)COC(=O)NCCC[C@H]1OC[C@H](c2ccc(Cl)c3ccccc32)CO1 [Compound No. 46, 2-Amino-2-oxoethyl trans-3-[5-(4-chloronaphthalen-1-yl)-1,3-dioxan-2-yl]propylcarbamate]
176	COc1ccc2c(cccc2[C@H]2CO[C@H](CCCNC(=O)OCC(=O)NC3CC3)OC2)c1 [Compound No. 61, 2-(Cyclopropylamino)-2-oxoethyl trans-3-[5-(6-methoxy-naphthalen-1-yl)-1,3-dioxan-2-yl]propylcarbamate]
105 to 107	O=C(NCCC[C@H]1OC[C@H](c2cccc3cc(OCC4CC4)ccc32)CO1)OCC(F)(F)F [Compound No. 68, 2,2,2-Trifluoroethyl trans-3-[5-(6-cyclopropylmethoxy-naphthalen-1-yl)-1,3-dioxan-2-yl]propylcarbamate]
112 to 114	NC(=O)COC(=O)NCCC[C@H]1OC[C@H](c2cccc3ccccc32)CO1 [compound 38, 2-amino-2-oxoethyl trans-3-[5-(naphthalen-1-yl)-1,3-dioxan-2-yl]propylcarbamate]
86 to 88	CNC(=O)COC(=O)NCC[C@H]1OC[C@H](c2cccc3ccccc32)CO1 [compound 39, 2-(methylamino)-2-oxoethyl trans-2-[5-(naphthalen-1-yl)-1,3-dioxan-2-yl]ethylcarbamate]
154	CNC(=O)COC(=O)NCCC[C@H]1OC[C@H](c2cccc3ccccc32)CO1 [compound 40, 2-(methylamino)-2-oxoethyl trans-3-[5-(naphthalen-1-yl)-1,3-dioxan-2-yl]propylcarbamate]
111 to 113	O=C(NCC[C@H]1OC[C@H](c2cccc3ccccc32)CO1)OCC(F)(F)F [compound 41, 2,2,2-trifluoroethyl trans-2-[5-(naphthalen-1-yl)-1,3-dioxan-2-yl]ethylcarbamate]
89 to 92	O=C(NCCC[C@H]1OC[C@H](c2cccc3ccccc32)CO1)OCC(F)(F)F [compound 42, 2,2,2-trifluoroethyl trans-3-[5-(naphthalen-1-yl)-1,3-dioxan-2-yl]propylcarbamate]
190 to 192	CNC(=O)COC(=O)NCCC[C@H]1OC[C@H](c2ccc(Cl)c3ccccc32)CO1 [compound 47, 2-(methylamino)-2-oxoethyl trans-3-[5-(4-chloro-naphthalen-1-yl)-1,3-dioxan-2-yl]propylcarbamate]

melting point [°C]	Compound
182 to 184	CNC(=O)COC(=O)NCCC[C@H]1OC[C@H](c2cccc3cc(Cl)ccc32)CO1 [compound 48, 2-(methylamino)-2-oxoethyl trans-3-[5-(6-chloro-naphthalen-1-yl)-1,3-dioxan-2-yl]propylcarbamate]
136 to 138	CNC(=O)COC(=O)NCC[C@H]1OC[C@H](c2cccc3cc(OC)ccc32)CO1 [compound 54, 2-(methylamino)-2-oxoethyl trans-2-[5-(6-methoxy-naphthalen-1-yl)-1,3-dioxan-2-yl]ethylcarbamate]
93 to 95	COc1ccc2c(cccc2[C@H]2CO[C@H](CCNC(=O)OCC(F)(F)F)OC2)c1 [compound 56, 2,2,2-trifluoroethyl trans-2-[5-(6-methoxynaphthalen-1-yl)-1,3-dioxan-2-yl]ethylcarbamate]
128 to 130	CNC(=O)COC(=O)NCCC[C@H]1OC[C@H](c2cccc3cc(OC)ccc32)CO1 [compound 57, 2-(methylamino)-2-oxoethyl trans-3-[5-(6-methoxy-naphthalen-1-yl)-1,3-dioxan-2-yl]propylcarbamate]
170 to 172	CCNC(=O)COC(=O)NCCC[C@H]1OC[C@H](c2cccc3cc(OC)ccc32)CO1 [compound 58, 2-(ethylamino)-2-oxoethyl trans-3-[5-(6-methoxy-naphthalen-1-yl)-1,3-dioxan-2-yl]propylcarbamate]
152	COc1ccc2c(cccc2[C@H]2CO[C@H](CCCNC(=O)OCC(=O)NCc3ccncc3)OC2)c1 [compound 60, 2-[(pyridin-4-yl)methylamino]-2-oxoethyl trans-3-[5-(6-methoxynaphthalen-1-yl)-1,3-dioxan-2-yl]propylcarbamate]
111	COc1ccc2c(cccc2[C@H]2CO[C@H](CCCNC(=O)OCC(F)(F)F)OC2)c1 [compound 62, 2,2,2-trifluoroethyl trans-3-[5-(6-methoxynaphthalen-1-yl)-1,3-dioxan-2-yl]propylcarbamate]
137 to 139	NC(=O)COC(=O)NCCC[C@H]1OC[C@H](c2cccc3cc(OCC4CC4)ccc32)CO1 [compound 66, 2-amino-2-oxoethyl trans-3-[5-(6-cyclopropylmethoxy-naphthalen-1-yl)-1,3-dioxan-2-yl]propylcarbamate]
166 to 170	NC(=O)COC(=O)NCCC[C@H]1OC[C@H](c2cccc3cc(O)ccc32)CO1 [compound 70, 2-amino-2-oxoethyl trans-3-[5-(6-hydroxynaphthalen-1-yl)-1,3-dioxan-2-yl]propylcarbamate]
140 to 148	CNC(=O)COC(=O)NCCC[C@H]1OC[C@H](c2cccc3cc(O)ccc32)CO1 [compound 71, 2-(methylamino)-2-oxoethyl trans-3-[5-(6-hydroxy-naphthalen-1-yl)-1,3-dioxan-2-yl]propylcarbamate]
156 to 158	COc1ccc2cccc([C@H]3CO[C@H](CCCNC(=O)OCC(N)=O)OC3)c2c1 [compound 72, 2-amino-2-oxoethyl trans-3-[5-(7-methoxynaphthalen-1-yl)-1,3-dioxan-2-yl]propylcarbamate]
144 to 146	CNC(=O)COC(=O)NCCC[C@H]1OC[C@H](c2cccc3ccc(OC)cc32)CO1 [compound 73, 2-(methylamino)-2-oxoethyl trans-3-[5-(7-methoxy-naphthalen-1-yl)-1,3-dioxan-2-yl]propylcarbamate]
93 to 96	COc1ccc2cccc([C@H]3CO[C@H](CCCNC(=O)OCC(F)(F)F)OC3)c2c1 [compound 74, 2,2,2-trifluoroethyl trans-3-[5-(7-methoxynaphthalen-1-yl)-1,3-dioxan-2-yl]propylcarbamate]
144 to 146	CNC(=O)COC(=O)NCCC[C@H]1OC[C@H](c2ccc3ccccc3c2)CO1 [compound 77, 2-(methylamino)-2-oxoethyl trans-3-[5-(naphthalen-2-yl)-1,3-dioxan-2-yl]propylcarbamate]
130 to 132	O=C(NCCC[C@H]1OC[C@H](c2ccc3ccccc3c2)CO1)OCC(F)(F)F [compound 78, 2,2,2-trifluoroethyl trans-3-[5-(naphthalen-2-yl)-1,3-dioxan-2-yl]propylcarbamate]
